The source made the active and inactive calls. The rule behind the calls is not given here.
Columns and labels:
[1] = target: T1, Gamma-secretase (Homo sapiens) (UniProt Q96BI3+Q9NZ42+Q8WW43+P49768+Q92542+P49810); experiment: Modulation of gamma-secretase expressed in HEK293 cells co-expressing APPsw-lon assessed as reduction of total amyloid beta/amyloid-beta-42 ratio by sandwich immunoassay; type: cell-based
Gamma-secretase = experiment: Modulation of gamma-secretase expressed in HEK293 cells co-expressing APPsw-lon assessed as reduction of amyloid-beta-42 level by sandwich immunoassay; type: cell-based, Homo sapiens
Rattus norvegicus [2] = experiment: Antialzheimer's activity in rat assessed as reduction of amyloid-beta-42 level in CSF at 10 mg/kg, po after 3 hrs by AlphaLISA amyloid assay; type: functional
[3] = Plasma concentration in rat at 10 mg/kg, po after 3 hrs; type: ADME, organism-based; parameters: dose 10 mg/kg, route oral
[4] = Drug level in rat brain at 10 mg/kg, po after 3 hrs; type: ADME, organism-based; parameters: dose 10 mg/kg, route oral; conditions: read-out: Drug uptake
[5] = Drug level in rat brain at 10 mg/kg, po after 6 hrs; type: ADME, organism-based; parameters: dose 10 mg/kg, route oral; conditions: read-out: Drug uptake
[6] = AUC (0 to 6 hrs) in rat plasma at 10 mg/kg, po; type: ADME, organism-based; parameters: time < 6 hr, dose 10 mg/kg, route oral
[7] = Ratio of drug level in brain to plasma rat at 10 mg/kg, po after 6 hrs; type: ADME, organism-based; parameters: dose 10 mg/kg, route oral; conditions: read-out: BPR
Rattus norvegicus [8] = species: Rattus norvegicus; experiment: Toxicity in rat assessed as biomarker changes; type: organism-based; conditions: in vivo
[9] = Oral bioavailability in rat; type: ADME, organism-based; conditions: in vivo
Caco-2 = experiment: Permeability across human Caco2 cells; type: ADME, cell-based
hERG (KCNH2) = hERG (KCNH2) (Homo sapiens, UniProt Q12809); experiment: Inhibition of human ERG at 10 uM
[10] = Activity at p-glycoprotein
Canis familiaris = species: Canis familiaris; experiment: Cardiotoxicity in dog assessed as effect on QTc intervals; type: toxicity, organism-based, Canis lupus familiaris; conditions: in vivo
[11] = Half life in rat; type: ADME, organism-based; conditions: in vivo
[12] = target: T1, Gamma-secretase (Homo sapiens); experiment: Modulation of gamma-secretase-mediated Notch processing expressed in HEK293 cells co-expressing human Notch1 protein up to 50 uM; type: cell-based
[13] = Volume of distribution at steady state in rat; type: ADME, organism-based; conditions: in vivo, read-out: Vdss
[14] = Clearance in rat; type: ADME, organism-based; conditions: in vivo
Rattus norvegicus [15] = experiment: Antialzheimer's activity in po dosed rat assessed as reduction of amyloid-beta-42 level in CSF after 3 hrs by AlphaLISA amyloid assay; type: functional, organism-based
Rattus norvegicus [16] = species: Rattus norvegicus; experiment: Toxicity in rat assessed as Notch-related side effects; type: organism-based; conditions: in vivo

hERG (KCNH2), sequence (Q12809 whole entry): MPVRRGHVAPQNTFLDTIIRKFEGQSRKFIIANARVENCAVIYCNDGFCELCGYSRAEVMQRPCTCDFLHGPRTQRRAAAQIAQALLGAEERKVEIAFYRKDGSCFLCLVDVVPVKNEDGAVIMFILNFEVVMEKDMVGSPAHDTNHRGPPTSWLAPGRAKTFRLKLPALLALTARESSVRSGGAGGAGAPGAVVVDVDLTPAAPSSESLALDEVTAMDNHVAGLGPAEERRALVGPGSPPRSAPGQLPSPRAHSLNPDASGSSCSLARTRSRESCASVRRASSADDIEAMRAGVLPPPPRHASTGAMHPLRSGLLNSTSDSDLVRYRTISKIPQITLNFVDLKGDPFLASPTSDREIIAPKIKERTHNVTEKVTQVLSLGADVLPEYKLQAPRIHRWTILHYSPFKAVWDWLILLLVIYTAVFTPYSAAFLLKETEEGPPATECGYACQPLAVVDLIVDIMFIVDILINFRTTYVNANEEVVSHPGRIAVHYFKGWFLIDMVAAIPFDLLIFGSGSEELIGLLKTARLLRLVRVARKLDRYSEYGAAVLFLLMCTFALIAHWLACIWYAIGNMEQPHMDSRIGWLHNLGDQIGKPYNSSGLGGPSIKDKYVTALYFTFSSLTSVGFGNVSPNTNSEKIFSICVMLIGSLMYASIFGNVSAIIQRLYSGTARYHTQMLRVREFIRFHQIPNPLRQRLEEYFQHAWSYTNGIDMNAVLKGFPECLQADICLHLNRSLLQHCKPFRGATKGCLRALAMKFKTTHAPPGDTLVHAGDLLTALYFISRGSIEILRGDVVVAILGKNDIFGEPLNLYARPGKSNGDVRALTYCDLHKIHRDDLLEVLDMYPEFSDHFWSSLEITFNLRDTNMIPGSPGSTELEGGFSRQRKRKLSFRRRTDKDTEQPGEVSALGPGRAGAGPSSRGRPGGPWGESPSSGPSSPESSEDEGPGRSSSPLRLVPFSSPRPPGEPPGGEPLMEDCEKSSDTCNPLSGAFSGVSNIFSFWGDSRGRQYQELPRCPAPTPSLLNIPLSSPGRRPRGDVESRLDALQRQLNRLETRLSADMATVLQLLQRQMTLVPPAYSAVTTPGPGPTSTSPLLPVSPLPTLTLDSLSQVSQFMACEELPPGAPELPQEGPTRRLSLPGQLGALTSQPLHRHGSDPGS

COc1cc(/C=C2\CCCN3C2=NOC32CCOc3ccc(F)cc32)ccc1-n1cnc(C)c1 (centres undefined)
Ratio [1]: 223 | IC50 (Gamma-secretase): 58 nM

COc1cc(/C=C2\CCCN3C2=NO[C@]3(CO)c2ccc(F)cc2)ccc1-n1cnc(C)c1
Ratio [1]: 488 | IC50 (Gamma-secretase): 29 nM

COc1cc(/C=C2\CCCN3C2=NOC3(CO)c2ccc(F)cc2)ccc1-n1cnc(C)c1 (centres undefined)
Ratio [1]: 289 | IC50 (Gamma-secretase): 75 nM

COc1cc(/C=C2\CCCN3C2=NOCC3C(O)c2ccc(Cl)cc2)ccc1-n1cnc(C)c1 (centres undefined)
Ratio [1]: 49 | IC50 (Gamma-secretase): 300 nM

COc1cc(/C=C2\CCCN3CC(c4cnccn4)ON=C23)ccc1-n1cnc(C)c1 (racemic)
Ratio [1]: 2 | IC50 (Gamma-secretase): 9000 nM

COc1cc(/C=C2\CCCN3CC(CO[Si](c4ccccc4)(c4ccccc4)C(C)(C)C)ON=C23)ccc1-n1cnc(C)c1 (racemic)
Ratio [1]: 80 | IC50 (Gamma-secretase): 56 nM

COc1cc(/C=C2\O[C@H](C)CN3C2=NOC[C@@H]3c2cc(F)c(F)c(F)c2)ccc1-n1cnc(C)c1
Ratio [1]: 1170 | inhibition in vivo at 10 mg/kg (Rattus norvegicus [2]): 60% | IC50 (Gamma-secretase): 11 nM

COc1cc(/C=C2\CCCN3C2=NOC[C@@H]3COCc2ccccc2)ccc1-n1cnc(C)c1
Ratio [1]: 120 | IC50 (Gamma-secretase): 100 nM

COc1cc(/C=C2\CCCN3C2=NOC[C@@H]3c2ccccc2)ccc1-n1cnc(C)c1
concentration at 3 h [3]: 6.2 µM | concentration at 3 h [4]: 2.8 µM | concentration at 6 h [5]: 539 ng/g | AUC(0-t) at 6 h [6]: 17.6 µM·h | Ratio [1]: 210 | inhibition in vivo at 10 mg/kg (Rattus norvegicus [2]): 39% | Kp at 6 h [7]: 0.9 | IC50 (Gamma-secretase): 87 nM

COc1cc(/C=C2\CCCN3C2=NOC[C@@H]3Cc2ccccc2)ccc1-n1cnc(C)c1
Ratio [1]: 238 | IC50 (Gamma-secretase): 80 nM

COc1cc(/C=C2\CCCN3CC(Cc4ccccc4)ON=C23)ccc1-n1cnc(C)c1 (racemic)
Ratio [1]: 241 | IC50 (Gamma-secretase): 83 nM

COc1cc(/C=C2\CCCN3C2=NOC[C@@H]3CC(C)C)ccc1-n1cnc(C)c1
Ratio [1]: 149 | IC50 (Gamma-secretase): 73 nM

COc1cc(/C=C2\CCCN3C2=NOC[C@@H]3C(C)(C)C)ccc1-n1cnc(C)c1
Ratio [1]: 162 | IC50 (Gamma-secretase): 120 nM

COc1cc(/C=C2\CCCN3C2=NOCC32CCOc3ccc(F)cc32)ccc1-n1cnc(C)c1 (racemic)
Ratio [1]: 50 | IC50 (Gamma-secretase): 400 nM

CCc1csc(C[C@H]2CON=C3/C(=C/c4ccc(-n5cnc(C)c5)c(OC)c4)CCCN32)n1
Ratio [1]: 3 | IC50 (Gamma-secretase): 6400 nM

COc1cc(/C=C2\CCCN3C2=NOC[C@@H]3CO)ccc1-n1cnc(C)c1
Ratio [1]: 6 | IC50 (Gamma-secretase): 3300 nM

COc1cc(/C=C2\CCCN3C2=NOC[C@@H]3c2cc(F)c(OC)c(F)c2)ccc1-n1cnc(C)c1
concentration at 3 h [3]: 6.3 µM | concentration at 6 h [5]: 268 ng/g | AUC(0-t) at 6 h [6]: 22.7 µM·h | Ratio [1]: 459 | inhibition in vivo at 10 mg/kg (Rattus norvegicus [2]): 26% | Kp at 6 h [7]: 1.1 | IC50 (Gamma-secretase): 44 nM

COc1cc(/C=C2\O[C@@H](C)CN3C2=NOC[C@@H]3c2cc(F)c(F)c(F)c2)ccc1-n1cnc(C)c1
Ratio [1]: 320 | IC50 (Gamma-secretase): 46 nM

COc1cc(/C=C2\CCCN3C2=NOC[C@@H]3c2ccc(F)cc2)ccc1-n1cnc(C)c1
concentration at 3 h [3]: 6.7 µM | concentration at 3 h [4]: 7.7 µM | concentration at 6 h [5]: 2850 ng/g | AUC(0-t) at 6 h [6]: 86.5 µM·h | Ratio [1]: 385 | inhibition in vivo at 10 mg/kg (Rattus norvegicus [2]): 53% | Kp at 6 h [7]: 0.8 | IC50 (Gamma-secretase): 37 nM

COc1cc(/C=C2\CCCN3C2=NOC[C@@H]3CS(C)(=O)=O)ccc1-n1cnc(C)c1
Ratio [1]: 1 | IC50 (Gamma-secretase): 19000 nM

COc1cc(/C=C2\CCCN3CC(c4ccccc4)ON=C23)ccc1-n1cnc(C)c1 (racemic)
Ratio [1]: 91 | IC50 (Gamma-secretase): 210 nM

COc1cc(/C=C2\O[C@@H](C)CN3C2=NOC[C@@H]3c2cc(F)cc(F)c2)ccc1-n1cnc(C)c1
Ratio [1]: 550 | IC50 (Gamma-secretase): 35 nM

COc1cc(/C=C2\CCCN3C(=O)C(c4cc(F)cc(F)c4)ON=C23)ccc1-n1cnc(C)c1 (racemic)
Ratio [1]: 18 | IC50 (Gamma-secretase): 1100 nM

COc1cc(/C=C2\CCCN3CC(c4nccn4C)ON=C23)ccc1-n1cnc(C)c1 (racemic)
Ratio [1]: 3 | IC50 (Gamma-secretase): 6700 nM

COc1cc(/C=C2\O[C@H](C)CN3C2=NOC[C@@H]3c2cc(F)cc(F)c2)ccc1-n1cnc(C)c1
Ratio [1]: 1220 | IC50 (Gamma-secretase): 16 nM

COc1cc(/C=C2\CCCN3CC(C(O)c4cc(F)cc(F)c4)ON=C23)ccc1-n1cnc(C)c1 (racemic)
Ratio [1]: 265 | IC50 (Gamma-secretase): 76 nM

COc1cc(/C=C2\CCCN3CC(CO)ON=C23)ccc1-n1cnc(C)c1 (racemic)
Ratio [1]: 4 | IC50 (Gamma-secretase): 5400 nM

COc1cc(/C=C2\CCCN3C2=NOC3(C)c2ccc(F)cc2)ccc1-n1cnc(C)c1 (centres undefined)
Ratio [1]: 237 | IC50 (Gamma-secretase): 58 nM

COc1cc(/C=C2\CCCN3CC(c4cccc5ccccc45)ON=C23)ccc1-n1cnc(C)c1 (racemic)
Ratio [1]: 158 | IC50 (Gamma-secretase): 130 nM

COc1cc(/C=C2\CCCN3C2=NOC[C@@H]3c2cc(F)cc(Cl)c2)ccc1-n1cnc(C)c1
concentration at 3 h [3]: 7.2 µM | concentration at 6 h [5]: 1340 ng/g | AUC(0-t) at 6 h [6]: 24.6 µM·h | Ratio [1]: 507 | inhibition in vivo at 10 mg/kg (Rattus norvegicus [2]): 62% | Kp at 6 h [7]: 1.1 | IC50 (Gamma-secretase): 39 nM

COc1cc(/C=C2\CCCN3C2=NOC[C@@H]3CN2CCOCC2)ccc1-n1cnc(C)c1
Ratio [1]: 5 | IC50 (Gamma-secretase): 3700 nM

COc1cc(/C=C2\CCCN3C(=O)CON=C23)ccc1-n1cnc(C)c1
Ratio [1]: 8 | IC50 (Gamma-secretase): 2500 nM

COc1cc(/C=C2\CCCN3C2=NOC[C@@H]3C(C)C)ccc1-n1cnc(C)c1
Ratio [1]: 34 | IC50 (Gamma-secretase): 530 nM

COc1cc(/C=C2\CCCN3C2=NOC[C@@H]3C2CCOCC2)ccc1-n1cnc(C)c1
Ratio [1]: 11 | IC50 (Gamma-secretase): 1900 nM

COc1cc(/C=C2\CCCN3C2=NOCC3(CO)c2ccc(F)cc2)ccc1-n1cnc(C)c1 (racemic)
Ratio [1]: 2 | IC50 (Gamma-secretase): 13300 nM

COc1cc(/C=C2\CCCN3C2=NOC[C@@H]3c2cc(F)c(F)c(F)c2)ccc1-n1cnc(C)c1
Activity (Rattus norvegicus [8]): Non-toxic | bioavailability [9]: 100% | permeability (Caco-2): permeable | concentration at 3 h [3]: 10.7 µM | inhibition at 10 µM (hERG (KCNH2)): 76% | Activity [10]: inactive | Activity (Canis familiaris): Non-toxic | half-life [11]: 210 min | Activity [12]: inactive | Vd [13]: 0.4 L/kg | concentration at 6 h [5]: 2910 ng/g | AUC(0-t) at 6 h [6]: 87.4 µM·h | clearance [14]: 1.4 mL/min/kg | Ratio [1]: 607 | inhibition (Rattus norvegicus [15]): Dose-dependent effect | inhibition in vivo at 10 mg/kg (Rattus norvegicus [2]): 62% | Kp at 6 h [7]: 0.4 | Activity (Rattus norvegicus [16]): Non-toxic | IC50 (Gamma-secretase): 33 nM

COc1cc(/C=C2\CCCN3C2=NOCC3(C)c2ccc(F)cc2)ccc1-n1cnc(C)c1 (racemic)
Ratio [1]: 69 | IC50 (Gamma-secretase): 230 nM

COc1cc(/C=C2\CCCN3CCON=C23)ccc1-n1cnc(C)c1
Ratio [1]: 7 | IC50 (Gamma-secretase): 3100 nM

COc1cc(/C=C2\CCCN3CC(COc4ccccc4)ON=C23)ccc1-n1cnc(C)c1 (racemic)
Ratio [1]: 147 | IC50 (Gamma-secretase): 140 nM

COc1cc(/C=C2\CCCN3C2=NOC[C@@H]3CNC(=O)c2cccc(Cl)c2)ccc1-n1cnc(C)c1
Ratio [1]: 24 | IC50 (Gamma-secretase): 820 nM

COc1cc(/C=C2\CCCN3CC(COCc4ccccc4)ON=C23)ccc1-n1cnc(C)c1 (racemic)
Ratio [1]: 80 | IC50 (Gamma-secretase): 250 nM

COc1cc(/C=C2\CCCN3C2=NOC[C@@H]3CC(=O)N2CCCCC2)ccc1-n1cnc(C)c1
Ratio [1]: 13 | IC50 (Gamma-secretase): 1500 nM

Reference: ChEMBL document CHEMBL2176973, “Synthesis and SAR Studies of Fused Oxadiazines as γ-Secretase Modulators for Treatment of Alzheimer's Disease” (ACS Med Chem Lett, 2012)
